Consider three compounds from ChEMBL document CHEMBL3046000, “Design and synthesis of 1-(benzothiazol-5-yl)-1H-1,2,4-triazol-5-ones as protoporphyrinogen oxidase inhibitors” (Bioorg Med Chem, 2013).

Experiment [1] concerns Chenopodium album. In words: Post-emergence herbicidal activity against Chenopodium album seedlings assessed as plant growth inhibition at 75 g ai/ha measured 15 days after compound treatment under greenhouse conditions. The experiment is classed as functional. Conditions: 360 h, read-out: GI.
The test system of experiment [2] is Chenopodium album. In words: Post-emergence herbicidal activity against Chenopodium album seedlings assessed as plant growth inhibition at 37.5 g ai/ha measured 15 days after compound treatment under greenhouse conditions. The experiment is classed as functional. The note with it: 360 h, read-out: GI.
The test system of experiment [3] is Chenopodium album. Description: Post-emergence herbicidal activity against Chenopodium album seedlings assessed as plant growth inhibition at 150 g ai/ha measured 15 days after compound treatment under greenhouse conditions. The format is functional. Conditions: 360 h, read-out: GI.
For experiment [4], the system named is Amaranthus retroflexus. Description: Post emergence herbicidal activity against Amaranthus retroflexus seedlings assessed as plant growth inhibition at 75 g ai/ha measured 15 days after compound treatment under greenhouse conditions. Conditions: 360 h, read-out: GI. The format is functional.
For experiment [5], the system named is Amaranthus retroflexus. Description: Post emergence herbicidal activity against Amaranthus retroflexus seedlings assessed as plant growth inhibition at 37.5 g ai/ha measured 15 days after compound treatment under greenhouse conditions. The format is functional. Conditions: 360 h, read-out: GI.
In experiment [6] the test system is Amaranthus retroflexus. Description: Post emergence herbicidal activity against Amaranthus retroflexus seedlings assessed as plant growth inhibition at 150 g ai/ha measured 15 days after compound treatment under greenhouse conditions. The experiment is classed as functional. The note with it: 360 h, read-out: GI.
The subject of experiment [7] is Brassica juncea. Description: Post-emergence herbicidal activity against Brassica juncea seedlings assessed as plant growth inhibition at 75 g ai/ha measured 15 days after compound treatment under greenhouse conditions. The format is functional. The note with it: 360 h, read-out: GI.
For experiment [8], the system named is Brassica juncea. Description: Post-emergence herbicidal activity against Brassica juncea seedlings assessed as plant growth inhibition at 37.5 g ai/ha measured 15 days after compound treatment under greenhouse conditions. The format is functional. Conditions: 360 h, read-out: GI.
The test system of experiment [9] is Brassica juncea. Description: Post-emergence herbicidal activity against Brassica juncea seedlings assessed as plant growth inhibition at 150 g ai/ha measured 15 days after compound treatment under greenhouse conditions. Conditions: 360 h, read-out: GI. The experiment is classed as functional.
The subject of experiment [10] is Setaria faberi. Description: Post-emergence herbicidal activity against Setaria faberi (Giant Foxtail) seedlings assessed as plant growth inhibition at 75 g ai/ha measured 15 days after compound treatment under greenhouse conditions. The note with it: 360 h, read-out: GI. The experiment is classed as functional.
Experiment [11] has as its system Setaria faberi. Description: Post-emergence herbicidal activity against Setaria faberi (Giant Foxtail) seedlings assessed as plant growth inhibition at 37.5 g ai/ha measured 15 days after compound treatment under greenhouse conditions. The format is functional. Conditions: 360 h, read-out: GI.
The subject of experiment [12] is Setaria faberi. In words: Post-emergence herbicidal activity against Setaria faberi (Giant Foxtail) seedlings assessed as plant growth inhibition at 150 g ai/ha measured 15 days after compound treatment under greenhouse conditions. The experiment is classed as functional. Conditions: 360 h, read-out: GI.
The test system of experiment [13] is Digitaria sanguinalis. In words: Post-emergence herbicidal activity against Digitaria sanguinalis (hairy crabgrass) seedlings assessed as plant growth inhibition at 75 g ai/ha measured 15 days after compound treatment under greenhouse conditions. The experiment is classed as functional. The note with it: 360 h, read-out: GI.
Experiment [14] deals with Digitaria sanguinalis. In words: Post-emergence herbicidal activity against Digitaria sanguinalis (hairy crabgrass) seedlings assessed as plant growth inhibition at 37.5 g ai/ha measured 15 days after compound treatment under greenhouse conditions. The experiment is classed as functional. The note with it: 360 h, read-out: GI.
In experiment [15] the test system is Digitaria sanguinalis. In words: Post-emergence herbicidal activity against Digitaria sanguinalis (hairy crabgrass) seedlings assessed as plant growth inhibition at 150 g ai/ha measured 15 days after compound treatment under greenhouse conditions. The note with it: 360 h, read-out: GI. The experiment is classed as functional.
Experiment [16] has as its system Echinochloa crus-galli. In words: Post emergence herbicidal activity against Echinochloa crus-galli (barnyard grass) seedlings assessed as plant growth inhibition at 75 g ai/ha measured 15 days after compound treatment under greenhouse conditions. The format is functional. Conditions: 360 h, read-out: GI.
For experiment [17], the system named is Echinochloa crus-galli. Description: Post emergence herbicidal activity against Echinochloa crus-galli (barnyard grass) seedlings assessed as plant growth inhibition at 37.5 g ai/ha measured 15 days after compound treatment under greenhouse conditions. The experiment is classed as functional. Conditions: 360 h, read-out: GI.
Experiment [18] deals with Echinochloa crus-galli. Description: Post emergence herbicidal activity against Echinochloa crus-galli (barnyard grass) seedlings assessed as plant growth inhibition at 150 g ai/ha measured 15 days after compound treatment under greenhouse conditions. The format is functional. Conditions: 360 h, read-out: GI.
The target of experiment [19] is T1, Protoporphyrinogen oxidase, chloroplastic (Nicotiana tabacum, UniProt O24163).
T1 sequence (O24163 whole entry): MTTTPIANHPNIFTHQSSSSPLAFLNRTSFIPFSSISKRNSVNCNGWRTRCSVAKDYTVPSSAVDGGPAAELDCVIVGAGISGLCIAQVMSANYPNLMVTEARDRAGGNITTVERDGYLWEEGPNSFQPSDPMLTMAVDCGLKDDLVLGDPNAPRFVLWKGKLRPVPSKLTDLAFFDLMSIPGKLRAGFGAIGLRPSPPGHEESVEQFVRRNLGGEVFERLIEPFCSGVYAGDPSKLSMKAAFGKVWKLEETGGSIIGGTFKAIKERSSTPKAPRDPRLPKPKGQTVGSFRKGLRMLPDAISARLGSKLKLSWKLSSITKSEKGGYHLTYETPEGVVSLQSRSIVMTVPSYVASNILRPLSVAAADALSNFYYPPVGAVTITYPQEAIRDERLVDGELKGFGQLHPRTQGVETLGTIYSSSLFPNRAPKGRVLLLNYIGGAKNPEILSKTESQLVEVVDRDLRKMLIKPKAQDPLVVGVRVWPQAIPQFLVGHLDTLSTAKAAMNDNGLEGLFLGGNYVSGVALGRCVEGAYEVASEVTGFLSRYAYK
Description: Inhibition of Nicotiana tabacum (tobacco) recombinant PPO assessed as protoporphyrin IX formation at room temperature by fluorimetric assay.

Molecules are shown by their SMILES. A value given as a limit tells only on which side of the number the result lay.

With `Cc1nn(-c2cc3nc(SC(C)C(=O)O)sc3cc2Cl)c(=O)n1C(F)F` (configuration not stated), the inhibition of growth at 75 g/ha in experiment [1] is at least 90%; in [4], 60%; in experiment [7] it was 80%; in [10], under 50%; in experiment [13] it was under 50%; in experiment [16] it was under 50%. Moreover, the inhibition of growth at 37.5 g/ha in [2] is 60%; in experiment [5], under 50%; in experiment [8], under 50%; in [11], under 50%; in [14], under 50%; in experiment [17], under 50%. Further, the inhibition of growth at 150 g/ha in experiment [3], in experiment [6], in experiment [9], in experiment [12], in [15] and in experiment [18] was at least 90% in each case. Also, the inhibition constant (Ki) in experiment [19] was determined as 6.73 µM.
For `Cc1nn(-c2cc3nc(SCC(=O)O)sc3cc2Cl)c(=O)n1C(F)F`, the inhibition of growth at 75 g/ha is at least 90% in experiment [1]; at least 90% in experiment [4]; at least 90% in experiment [7]; under 50% in [10]; under 50% in [13]; under 50% in experiment [16]. The inhibition of growth at 37.5 g/ha in experiment [2] was 80%; in experiment [5], 50%; in experiment [8] it was 60%; in experiment [11], under 50%; in experiment [14] it was under 50%; in experiment [17], under 50%. The inhibition of growth at 150 g/ha in experiment [3], in experiment [6], in experiment [9], in [12], in [15] and in [18] was at least 90% throughout. Besides, the Ki in experiment [19] stood at 10.3 µM.
With `CCOC(=O)CSc1nc2cc(-n3nc(C)n(C(F)F)c3=O)c(Br)cc2s1`, the inhibition of growth at 75 g/ha in [1] was at least 90%; in [4], at least 90%; in experiment [7], 80%; in experiment [10], 60%; in [13], 60%; in [16], 60%. Further, the inhibition of growth at 37.5 g/ha in experiment [2] is at least 90%; in [5], at least 90%; in experiment [8], 80%; in experiment [11], 50%; in experiment [14] it was 50%; in [17], 50%. The inhibition of growth at 150 g/ha in experiment [3] was at least 90%; in experiment [6] it was at least 90%; in [9] it was at least 90%; in experiment [12], 80%; in experiment [15], 80%; in experiment [18] it was 50%. Besides, the Ki in experiment [19] came to 8 µM.
